This note sets out measurements from PMC10425802 (Genes & Diseases, 2023).

Among the targets are FGFR1 (Homo sapiens, UniProt P11362); FGFR3 (Homo sapiens, UniProt P22607); FGFR2 (Homo sapiens, UniProt P21802).
Assay in all cases: mobility shift kinase assay
Type in all cases: biochemical

FGFR3, sequence (P22607 23-806): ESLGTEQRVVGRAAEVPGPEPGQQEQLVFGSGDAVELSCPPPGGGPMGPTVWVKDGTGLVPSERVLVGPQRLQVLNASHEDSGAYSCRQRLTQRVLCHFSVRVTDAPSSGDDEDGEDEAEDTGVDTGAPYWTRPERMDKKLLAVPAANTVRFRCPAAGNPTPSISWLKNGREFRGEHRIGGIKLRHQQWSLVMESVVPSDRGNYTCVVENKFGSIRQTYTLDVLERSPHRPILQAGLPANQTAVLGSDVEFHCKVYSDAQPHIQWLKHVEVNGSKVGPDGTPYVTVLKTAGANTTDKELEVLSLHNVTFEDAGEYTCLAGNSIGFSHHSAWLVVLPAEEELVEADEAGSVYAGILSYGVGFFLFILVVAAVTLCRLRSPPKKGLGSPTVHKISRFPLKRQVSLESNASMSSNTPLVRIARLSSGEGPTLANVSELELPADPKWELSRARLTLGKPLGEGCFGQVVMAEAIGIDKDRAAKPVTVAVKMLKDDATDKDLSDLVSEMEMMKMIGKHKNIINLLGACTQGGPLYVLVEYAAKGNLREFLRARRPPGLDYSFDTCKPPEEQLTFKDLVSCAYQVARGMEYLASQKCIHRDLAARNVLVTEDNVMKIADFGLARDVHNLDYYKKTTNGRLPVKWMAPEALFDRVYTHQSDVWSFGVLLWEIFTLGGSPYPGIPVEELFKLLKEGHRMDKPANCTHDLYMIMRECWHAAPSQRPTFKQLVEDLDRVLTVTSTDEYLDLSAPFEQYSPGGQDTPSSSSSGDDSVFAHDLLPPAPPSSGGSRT
FGFR2, sequence (P21802 22-821): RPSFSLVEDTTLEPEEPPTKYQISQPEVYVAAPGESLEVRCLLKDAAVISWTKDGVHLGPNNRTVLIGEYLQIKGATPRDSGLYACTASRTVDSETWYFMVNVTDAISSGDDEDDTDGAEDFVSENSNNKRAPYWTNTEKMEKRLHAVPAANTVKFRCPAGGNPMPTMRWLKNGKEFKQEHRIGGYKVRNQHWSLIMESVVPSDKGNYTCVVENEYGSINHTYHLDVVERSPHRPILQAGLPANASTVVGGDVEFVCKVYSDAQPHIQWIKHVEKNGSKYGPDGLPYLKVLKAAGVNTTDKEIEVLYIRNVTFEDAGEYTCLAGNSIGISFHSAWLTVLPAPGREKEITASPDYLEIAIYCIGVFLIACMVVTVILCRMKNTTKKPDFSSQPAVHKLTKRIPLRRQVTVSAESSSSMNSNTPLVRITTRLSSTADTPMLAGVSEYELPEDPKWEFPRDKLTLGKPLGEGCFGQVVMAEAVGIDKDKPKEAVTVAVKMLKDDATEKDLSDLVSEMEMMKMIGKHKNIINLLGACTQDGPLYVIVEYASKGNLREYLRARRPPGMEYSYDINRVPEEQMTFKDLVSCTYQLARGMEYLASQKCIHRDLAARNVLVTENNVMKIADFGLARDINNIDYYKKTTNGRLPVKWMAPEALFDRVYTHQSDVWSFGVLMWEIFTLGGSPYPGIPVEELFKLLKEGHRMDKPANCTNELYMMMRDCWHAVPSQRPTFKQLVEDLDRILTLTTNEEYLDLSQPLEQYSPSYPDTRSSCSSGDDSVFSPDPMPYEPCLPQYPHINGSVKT
FGFR1, sequence (P11362 22-822): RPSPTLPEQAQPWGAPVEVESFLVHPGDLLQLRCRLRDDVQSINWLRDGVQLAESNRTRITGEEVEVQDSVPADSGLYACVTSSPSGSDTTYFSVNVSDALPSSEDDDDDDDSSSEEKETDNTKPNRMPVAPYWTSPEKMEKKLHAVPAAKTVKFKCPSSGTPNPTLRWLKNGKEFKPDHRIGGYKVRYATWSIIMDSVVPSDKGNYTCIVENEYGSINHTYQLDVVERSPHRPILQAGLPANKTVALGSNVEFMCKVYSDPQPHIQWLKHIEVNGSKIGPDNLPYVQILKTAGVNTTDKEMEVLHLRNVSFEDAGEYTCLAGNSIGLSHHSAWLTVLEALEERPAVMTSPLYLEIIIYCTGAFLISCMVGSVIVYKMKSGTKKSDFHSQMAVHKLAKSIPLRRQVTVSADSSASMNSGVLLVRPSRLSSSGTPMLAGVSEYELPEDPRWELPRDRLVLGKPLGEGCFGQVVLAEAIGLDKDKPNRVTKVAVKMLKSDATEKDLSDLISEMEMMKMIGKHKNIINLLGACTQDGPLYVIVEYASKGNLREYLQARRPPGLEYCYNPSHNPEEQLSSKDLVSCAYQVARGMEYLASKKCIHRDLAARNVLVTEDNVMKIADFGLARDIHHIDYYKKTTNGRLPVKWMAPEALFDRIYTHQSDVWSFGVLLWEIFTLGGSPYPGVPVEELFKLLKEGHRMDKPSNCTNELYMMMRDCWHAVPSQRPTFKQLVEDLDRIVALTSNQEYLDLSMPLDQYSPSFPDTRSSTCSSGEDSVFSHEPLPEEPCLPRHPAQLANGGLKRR

Take CYY292: the IC50 on FGFR1 was found to be 0.028 µM; on FGFR3, 0.078 µM; at FGFR2, 0.028 µM.
